Results reported in patent US20110086759A1, “CHEMICAL COMPOUNDS” (SYNGENTA CROP PROTECTION, INC., priority 2007, published 2011).

Legend:
Type in all cases: in vivo
[1] = tested on: Alopecurus myosuroides (ALOMY); assay: Post-emergence biological efficacy, glasshouse pot test; conditions: 312 h, post-emergence, 1,000 g/ha, evaluated after 13 days (100=total damage; 0=no damage), read-out: Percentage damage caused to weed species, ALOMY
Method: (§1) Seeds of Alopecurus myosuroides (ALOMY), Setaria faberi (SETFA), Echinochloa crus-galli (ECHCG), Solanum nigrum (SOLNI), Amaranthus retoflexus (AMARE) and Ipomea hederaceae (IPOHE) were sown in standard soil in pots. After cultivation for 8 days under controlled conditions in a glasshouse (at 24/16° C., day/night; 14 hours light; 65% humidity), the plants were sprayed with an aqueous spray solution derived from the formulation of the technical active ingredient in acetone/water (50:50) solution containing 0.5% Tween 20 (polyoxyethelyene sorbitan monolaurate, CAS RN 9005-64-5) to give a final dose of 1000 or 250 g/ha of test compound.
(§2) The test plants were then grown on under controlled conditions in a glasshouse (at 24/16° C., day/night; 14 hours light; 65% humidity) and watered twice daily. After 13 days the test was evaluated (100=total damage to plant; 0=no damage to plant).

Setaria faberi (SETFA) [2] = assay: as above; conditions: 312 h, post-emergence, 1,000 g/ha, evaluated after 13 days (100=total damage; 0=no damage), read-out: Percentage damage caused to weed species, SETFA
Method: as §1, §2

[3] = tested on: Ipomea hederaceae (IPOHE); assay: as above; conditions: Ipomoea hederacea, 312 h; post-emergence, 1,000 g/ha, evaluated after 13 days (100=total damage; 0=no damage); read-out: Percentage damage caused to weed species, IPOHE
Method: as §1, §2

Solanum nigrum (SOLNI) [4] = assay: as above; conditions: 312 h, post-emergence, 1,000 g/ha, evaluated after 13 days (100=total damage; 0=no damage), read-out: Percentage damage caused to weed species, SOLNI
Method: as §1, §2

[5] = tested on: Amaranthus retoflexus (AMARE); assay: as above; conditions: Amaranthus retroflexus, 312 h; post-emergence, 1,000 g/ha, evaluated after 13 days (100=total damage; 0=no damage); read-out: Percentage damage caused to weed species, AMARE
Method: as §1, §2

[6] = tested on: Echinochloa crus-galli (ECHCG); assay: as above; conditions: 312 h, post-emergence, 1,000 g/ha, evaluated after 13 days (100=total damage; 0=no damage), read-out: Percentage damage caused to weed species, ECHCG
Method: as §1, §2

[7] = tested on: Alopecurus myosuroides (ALOMY); assay: Pre-emergence biological efficacy, glasshouse pot test; conditions: 312 h, pre-emergence, 1,000 g/ha, evaluated after 13 days (100=total damage; 0=no damage), read-out: Percentage damage ALOMY
Method: as §1, with “one day” for “8 days”
(§3) The test plants were then grown under controlled conditions in the glasshouse (at 24/16° C., day/night; 14 hours light; 65% humidity) and watered twice daily. After 13 days the test was evaluated (100=total damage to plant; 0=no damage to plant).

Setaria faberi (SETFA) [8] = assay: as above; conditions: 312 h, pre-emergence, 1,000 g/ha, evaluated after 13 days (100=total damage; 0=no damage), read-out: Percentage damage SETFA
Method: as §1, with “one day” for “8 days”
as §3

[9] = tested on: Ipomea hederaceae (IPOHE); assay: as above; conditions: Ipomoea hederacea, 312 h; pre-emergence, 1,000 g/ha, evaluated after 13 days (100=total damage; 0=no damage); read-out: Percentage damage IPOHE
Method: as §1, with “one day” for “8 days”
as §3

Solanum nigrum (SOLNI) [10] = assay: as above; conditions: 312 h, pre-emergence, 1,000 g/ha, evaluated after 13 days (100=total damage; 0=no damage), read-out: Percentage damage SOLNI
Method: as §1, with “one day” for “8 days”
as §3

[11] = tested on: Amaranthus retoflexus (AMARE); assay: as above; conditions: Amaranthus retroflexus, 312 h; pre-emergence, 1,000 g/ha, evaluated after 13 days (100=total damage; 0=no damage); read-out: Percentage damage AMARE
Method: as §1, with “one day” for “8 days”
as §3

[12] = tested on: Echinochloa crus-galli (ECHCG); assay: as above; conditions: 312 h, pre-emergence, 1,000 g/ha, evaluated after 13 days (100=total damage; 0=no damage), read-out: Percentage damage ECHCG
Method: as §1, with “one day” for “8 days”
as §3

Row | SMILES | pest or weed control at 1000 g/ha [1] | pest or weed control at 1000 g/ha (Setaria faberi (SETFA) [2]) | pest or weed control at 1000 g/ha [3] | pest or weed control at 1000 g/ha (Solanum nigrum (SOLNI) [4]) | pest or weed control at 1000 g/ha [5] | pest or weed control at 1000 g/ha [6] | pest or weed control at 1000 g/ha [7] | pest or weed control at 1000 g/ha (Setaria faberi (SETFA) [8]) | pest or weed control at 1000 g/ha [9] | pest or weed control at 1000 g/ha (Solanum nigrum (SOLNI) [10]) | pest or weed control at 1000 g/ha [11] | pest or weed control at 1000 g/ha [12]
1 | COC(=O)c1nc(C2CC2)nc(N[C@H]2COC[C@H]2O)c1Cl [4-38 (S,S), 5-Chloro-2-cyclopropyl-4-[(3S, 4S)-4-hydroxytetra-hydrofuran-3-ylamino]-6-methoxycarbonyl-pyrimidine] | 30% | 60% | 30% | 80% | 100% | 10% | 20% | 30% | 70% | 80% | 100% | 30%
2 | COC(=O)c1nc(C2CC2)nc(N[C@@H](C)C2CCCCC2)c1Cl [4-173 (S), 5-Chloro-4-[(1S)-1-(cyclohexyl)ethyl-amino]-2-cyclopropyl-6-methoxycarbonyl-pyrimidine] | 0% | 0% | 40% | 20% | 20% | 0% | 0% | 0% | 0% | 0% | 20% | 0%
3 | COC(=O)c1nc(C2CC2)nc(N[C@@H](C)c2cccc(OC)c2)c1Cl [4-180 (S), (S)-5-Chloro-2-cyclopropyl-6-methoxycarbonyl-4-[1-(3-methoxy-phenyl)ethylamino]-pyrimidine] | 20% | 30% | 80% | 70% | 80% | 50% | 0% | 0% | 80% | 10% | 20% | 0%
4 | COC(=O)c1nc(C2CC2)nc(N[C@@H](C)c2ccc(OC)cc2)c1Cl [4-181 (S), (S)-5-Chloro-2-cyclopropyl-6-methoxycarbonyl-4-[1-(4-methoxy-phenyl)ethylamino]-pyrimidine] | 30% | 40% | 90% | 90% | 100% | 50% | 20% | 0% | 80% | 60% | 60% | 50%
5 | COC(=O)c1nc(C2CC2)nc(N[C@H](C)c2cccc3ccccc23)c1Cl [4-184 (R), (R)-5-Chloro-2-cyclopropyl-6-methoxycarbonyl-4-[1-(naphth-1-yl)ethylamino]-pyrimidine] | 10% | 20% | 70% | 60% | 80% | 40% | 0% | 0% | 0% | 0% | 0% | 0%
6 | COC(=O)c1nc(C2CC2)nc(N[C@H](C)c2ccc3ccccc3c2)c1Cl [4-185 (R), (R)-5-Chloro-2-cyclopropyl-6-methoxycarbonyl-4-[1-(naphtha-2-yl)ethylamino]-pyrimidine] | 0% | 0% | 70% | 40% | 80% | 0% | 0% | 0% | 70% | 0% | 0% | 0%
7 | COC(=O)c1nc(C2CC2)nc(N[C@@H](CO)c2ccccc2)c1Cl [4-203 (R), 5-Chloro-2-cyclopropyl-4-[(1R)-2-hydroxy-1-phenyl-ethylamino]-6-methoxycarbonyl-pyrimidine] | 20% | 40% | 50% | 80% | 100% | 30% | 20% | 30% | 100% | 80% | 90% | 20%
8 | COC(=O)c1nc(C2CC2)nc(N[C@H](CO)c2ccccc2)c1Cl [4-203 (S), 5-Chloro-2-cyclopropyl-4-[(1S)-2-hydroxy-1-phenyl-ethylamino]-6-methoxycarbonyl-pyrimidine] | 30% | 50% | 70% | 80% | 100% | 30% | 20% | 40% | 80% | 80% | 70% | 20%
9 | COC(=O)c1nc(C2CC2)nc(N[C@@H](C)[C@H](O)c2ccccc2)c1Cl [4-270 (1S,2R), 5-Chloro-2-cyclopropyl-4-[(1S, 2R)-2-hydroxy-1-methyl-2-phenyl-ethylamino]-6-methoxycarbonyl-pyrimidine] | 40% | 80% | 100% | 100% | 100% | 30% | 20% | 30% | 100% | 80% | 70% | 20%
10 | COC(=O)c1nc(C2CC2)nc(N[C@H](C)[C@@H](O)c2ccccc2)c1Cl [4-270 (erythro), 5-Chloro-2-cyclopropyl-4-(erythro-2-hydroxy-1-methyl-2-phenyl-ethylamino)-6-methoxycarbonyl-pyrimidine] | 30% | 80% | 100% | 80% | 100% | 60% | 30% | 30% | 100% | 80% | 80% | 30%
